Source: patent US6849633B2, “Pyrazole derivative, production process thereof, and pest control agent containing the same as active ingredient” (Nihon Nohyaku Co., Ltd., priority 1999, dated 2005)

Columns and labels:
Format in all cases: in vivo
[1] = system: larvae of brown rice planthopper (Nilaparvata lugens); experiment: Insecticidal effect on larvae of brown rice planthopper (spray, Test Example 1); details: 500 ppm, emulsion sprayed, 4th instar larvae, 25° C., after 5 days; agonizing insect counted as 1/2 dead
Experimental: (§1) Insecticidal Effect on Larvae of Brown Rice Planthopper (Nilaparvata lugens)
A rice seedling was planted in a glass cylinder (inner diameter: 3 cm×length: 17 cm), and five 4th instar larvae of brown rice planthopper were set free therein. An agricultural and horticultural insecticide of the invention was prepared in accordance with Formulation Example 3 and diluted with water, and 0.5 ml of the resulting emulsion was sprayed into the cylinder by means of a spraying tower (manufactured by Mizuho Rika) (duplicates at a concentration). The cylinder was kept in a constant temperature room at 25° C., and the mortality and agony of the larvae were examined after 5 days from the treatment to obtain a death rate (%) taking an agonizing insect as a ½ dead insect. The results obtained are shown in Table 2 (the compound numbers in Table 2 correspond to the numbers in Table 1).

[2] = system: larvae of diamond back moth (Plutella xylostella); experiment: Insecticidal effect on larvae of diamond back moth (leaf disc, Test Example 2); details: 500 ppm, cabbage leaf disc soaked 1 minute, 3-instar larvae, 25° C., after 4 days
Experimental: Insecticidal Effect on Larvae of Diamond Back Moth (Plutella xylostella)
(§2) A disc (6 cm in diameter) cut out of a cabbage leaf was soaked for 1 minute in an aqueous suspension of the agricultural and horticultural insecticide of the invention prepared in accordance with Formulation Example 1, air-dried, and placed in a plastic cup (inner diameter: 7 cm). Five 3-instar larvae of Plutella xylostella were set free in the cup (duplicates at a concentration). The cup was kept in a constant temperature room at 25° C., and the death and agony of the larvae were examined after 4 days from the treatment to obtain a death rate (%) taking an agonizing insect as a ½ dead insect. The results obtained are shown in Table 3 (the compound numbers in the Table below correspond to the numbers in Table 1).

[3] = system: larvae of common cutworm (Spodoptera litura); experiment: Insecticidal effect on larvae of common cutworm (leaf disc, Test Example 3); details: 500 ppm, cabbage leaf disc soaked 1 minute, 3-instar larvae, 25° C., after 5 days
Experimental: Insecticidal Effect on Larvae of Common Cutworm (Spodoptera litura)
as §2, with “suspension of an agricultural and” for “suspension of the agricultural and”, “larvae of Spodoptera litura were set” for “larvae of Plutella xylostella were set”, “examined after 5 days from” for “examined after 4 days from”, “in Table 4 (the compound” for “in Table 3 (the compound”

[4] = system: imagoes of adzuki bean weevil (Callosobruchus chinensis); experiment: Insecticidal effect on imagoes of adzuki bean weevil (spray, Test Example 4); details: 500 ppm, emulsion sprayed, 25° C., after 4 days
Experimental: Insecticidal Effect on Imagoes of Adzuki Bean Weevil (Callosobruchus chinensis)
Two adzuki beans were put in a glass cylinder (inner diameter: 3 cm×length: 15 cm), and 10 imagoes of Callosobruchus chinensis were set free therein. An agricultural and horticultural insecticide of the invention was prepared in accordance with Formulation Example 3 and diluted with water, and 0.3 ml of the resulting emulsion was sprayed in the glass cylinder by means of a spray tower (manufactured by Mizuho Rika) (duplicates at a concentration). The cylinder was kept in a constant temperature room at 25° C., and the mortality and agony of the larvae were examined after 4 days from the treatment to obtain a death rate (%) taking an agonizing insect as a ½ dead insect. The results obtained are shown in Table 5 (the compound numbers in the Table correspond to the numbers in Table 1).

[5] = system: larvae of green peach aphid (Myzus persicae); experiment: Insecticidal effect on larvae of green peach aphid (leaf dip, Test Example 5); details: 500 ppm, leaves dipped about 5 seconds, 25° C., 4th day after treatment
Experimental: Insecticidal Effect on Larvae of Green Peach Aphid (Myzus persicae)
Water was put in a screw bottle (volume: 10 ml), and a leafstalk of Japanese radish was placed therein and inoculated with 5 to 6 imagoes of Myzus persicae per leave. After the inoculation, the bottle was put in a glass cylinder (diameter: […]; height: 15 cm) with a mesh cover, and the insects were let to proliferate in a constant temperature room kept at 25° C. for 3 days. The imagoes on the leaves were removed, and the leaves were dipped in an aqueous dilusion of an agricultural and horticultural insecticide prepared of the invention in accordance with Formulation Example 3 for about 5 seconds and then returned into the glass cylinder (duplicates at a concentration). The cylinder was kept in the constant temperature room at 25° C., and the number of the insects on the leaves was counted on the 4th day after the treatment to obtain a death rate (%). The results obtained are shown in Table 6 (the compound numbers in the Table correspond to the numbers in Table 1).

[6] = system: larvae of brown rice planthopper (Nilaparvata lugens); experiment: Insecticidal effect on larvae of brown rice planthopper, rice roots in agent solution (systemic, Test Example 6); details: for Death Rate (%) at Each Concentration of Active Ingrediet: 4th day; for insecticidal activity through systemic property (in words): summary of root-uptake test against brown rice planthopper
Experimental: as §1
Roots of young rice seedlings (height: about 10 cm) planted in a plastic cup were washed with water and soil was washed away so as not to damage the fine roots. The stem was pinched by a urethane tip (diameter: 3 cm, height: 2 cm) having a cut line and the roots were inserted into an Erlenmeyer flask to which 50 ml of an agent solution (an aqueous diluted solution of agricultural and horticultural insecticide of the invention prepared in accordance with Formulation Example 1) was placed beforehand (2 to 3 young rice seedlings/flask). The urethane tip was wedged into the mouse of the flask to fix the rice seedlings. A glass tube (diameter: 3 cm, height: 5 cm) was placed thereon, wedged into the urethane tip, and fixed with a tape. The flask in such state was kept in a constant temperature room at 25° C. for 3 days. Five larvae of brown rice planthopper were placed in the glass tube and then the tube was capped with a urethane tip, followed by keeping in the constant temperature room at 25° C. (duplicates at a concentration). The mortality and agony of the larvae were examined on 4th day after the treatment to obtain a death rate (%) taking an agonizing insect as a ½ dead insect. This test was carried out on three agent solutions different in the concentration of the active ingredient. The results are shown in Table 7 (the compound numbers in the table correspond to the numbers in Table 1).
As comparative compounds I to V, each compound having a structure shown below (Compound I described in Japanese Patent Laid-Open No. 316771/1988, Compounds II and III described in Examples of WO9845274, and Compounds IV and V included in the claim of WO9845274 but not included in the claim of the present application) was similarly subjected to the test. [drawing 36]
Brown rice planthopper (Nilaparvata lugens) is a highly problematic pest insect species which is harmful as described in Test Example 1, but a sufficient effect can not be attained by the application method of spraying an agent to stems and leafs, provided that the detection is delayed or that an enough amount of the agent is not spread to the roots.
Since this insect species has a characteristic of making its habitat around the roots of rice plant or the like and harming the plant through sucking fluid, more efficient method of controlling the insect may be a method of treating the surface of soil with an agent (granule treatment) before the outbreak of the species occurs widely. However, in order to attain a high controlling effect, a systemic property (a penetrating and migrating property) into a plant body is required as the nature of the agent.

[7] = system: Oryzias latipes; experiment: Test on toxicity to fish using Oryzias latipes (Test Example 7); details: death rate, 0.5 ppm aqueous solution, adult Oryzias latipes, after 48 hours
Experimental: Test on Toxicity to Fish Using Oryzias latipes
This test example is one example for examining safety of agricultural and horticultural insecticides to the environment.
Ten mg of each compound was dissolved in 1 ml of dimethyl sulfoxide and a 0.05 ml portion thereof was added to a glass beaker containing 1 liter of distilled water to obtain a 0.5 ppm aqueous solution. Into the aqueous solution was put five fishes of Oryzias latipes (adult, average weight: about 360 mg) and the mortality was examined after 48 hours to calculate a death rate (%) (5 fishes per 1 lot/beaker, single run). The results are shown in Table 8 (the compound numbers in the table correspond to the numbers in Table 1).
Similar to Test Example 6, Compound I described in Japanese Patent Laid-Open No. 316771/1988, Compounds II and III described in Examples of WO9845274, and Compounds IV and V included in the claim of WO9845274 but not included in the claim of the present application were subjected to the test, as comparative compounds.

[8] = system: cat flea; experiment: Insecticidal effect on cat flea (treated filter, Test Example 8); details: 0.7 mg/filter; mortality examined on 1st day and 2nd day after treatment
Source text: Insecticidal Effect on Cat Flea
After drying, the filter was placed on the bottom of a cylinder (diameter: 10 cm×height: 30 cm). Ten fleas were set free therein and the mortality was examined on 1st day and 2nd day after the treatment to calculate a death rate (%) based on the results. The results are shown in Table 9 (the compound numbers in the table correspond to the numbers in Table 1).

[9] = 0.2 ppm agent solution at rice roots
[10] = 0.8 ppm agent solution at rice roots
[11] = 3.1 ppm agent solution at rice roots

Compound | Death Rate (%) [1] | Death Rate (%) [2] | Death Rate (%) [3] | Death Rate (%) [4] | Death Rate (%) [5] | Death Rate (%) at Each Concentration of Active Ingrediet [6, 9] | Death Rate (%) at Each Concentration of Active Ingrediet [6, 10] | Death Rate (%) at Each Concentration of Active Ingrediet [6, 11] | Toxicity to fish (%) [7] | Death Rate (%) [8] | insecticidal activity through systemic property (in words) [6]
1-(2,6-dichloro-4-trifluoromethylphenyl)-4-trifluoromethylsulfinyl-5-(1-oxy-pyridin-3-ylmethylamino)pyrazole-3-carbonitrile [Compound 14] | 100% | 100% | 100% | 100% | 100% | 100% | 100% | 100% | 0% | – | –
C[S+]([O-])c1c(C#N)nn(-c2c(Cl)cc(C(F)(F)F)cc2Cl)c1NCc1cnccn1 (stereo not drawn) [Compound 1, 1-(2,6-dichloro-4-trifluoromethylphenyl)-4-methylsulfinyl-5-(pyrazin-2-ylmethylamino)pyrazole-3-carbonitrile] | 100% | 100% | – | 100% | 100% | 100% | 100% | 100% | 0% | – | –
N#Cc1nn(-c2c(Cl)cc(C(F)(F)F)cc2Cl)c(NCc2cnccn2)c1[S+]([O-])C(F)(F)F (stereo not drawn) [Compound 5, 1-(2,6-dichloro-4-trifluoromethylphenyl)-4-trifluoromethylsulfinyl-5-(pyrazin-2-ylmethylamino)pyrazole-3-carbonitrile] | 100% | 100% | 100% | 100% | 100% | 100% | 100% | 100% | – | 100% | –
N#Cc1nn(-c2c(Cl)cc(C(F)(F)F)cc2Cl)c(NCc2cc[n+]([O-])cc2)c1SC(F)(F)F [III] | – | – | – | – | – | 92% | 100% | 100% | 60% | – | –
N#Cc1nn(-c2c(Cl)cc(C(F)(F)F)cc2Cl)c(NCc2ccncc2)c1SC(F)(F)F [II] | – | – | – | – | – | – | 20% | 50% | 80% | – | obviously inferior effect
CSc1c(C#N)nn(-c2c(Cl)cc(C(F)(F)F)cc2Cl)c1NCc1cnccn1 [IV] | – | – | – | – | – | 100% | 100% | 100% | 100% | – | high systemic property
N#Cc1nn(-c2c(Cl)cc(C(F)(F)F)cc2Cl)c(N)c1[S+]([O-])C(F)(F)F (stereo not drawn) [I] | – | – | – | – | – | 33% | 67% | 92% | 100% | – | obviously inferior effect
N#Cc1nn(-c2c(Cl)cc(C(F)(F)F)cc2Cl)c(NCc2cnccn2)c1SC(F)(F)F [V] | – | – | – | – | – | 55% | 80% | 95% | 100% | – | –
